Test results: patent US4578393A, “Dihydroisoquinoline derivatives” (Beecham Group p.l.c., priority 1983, dated 1986)
Where a name gives a salt, the structure may show the parent alone. Read-outs that look alike come from different tables or passages of the source.

Columns and labels:
5-Lipoxygenase enzyme = target: T1, 5-Lipoxygenase enzyme (Rattus norvegicus, UniProt P12527); assay: Inhibition of 5-lipoxygenase activity (10,000 g supernatant from RBL-1 cells); assay type: biochemical; conditions: RBL-1 supernatant, 6.3 μm arachidonic acid, 29° C.
T1 construct: 5-Lipoxygenase enzyme was prepared as a 10,000 g supernatant from RBL-1 cells; endogenous in cells; host or cells: RBL-1 cells (10,000 g supernatant)
T1 sequence (P12527 1-673): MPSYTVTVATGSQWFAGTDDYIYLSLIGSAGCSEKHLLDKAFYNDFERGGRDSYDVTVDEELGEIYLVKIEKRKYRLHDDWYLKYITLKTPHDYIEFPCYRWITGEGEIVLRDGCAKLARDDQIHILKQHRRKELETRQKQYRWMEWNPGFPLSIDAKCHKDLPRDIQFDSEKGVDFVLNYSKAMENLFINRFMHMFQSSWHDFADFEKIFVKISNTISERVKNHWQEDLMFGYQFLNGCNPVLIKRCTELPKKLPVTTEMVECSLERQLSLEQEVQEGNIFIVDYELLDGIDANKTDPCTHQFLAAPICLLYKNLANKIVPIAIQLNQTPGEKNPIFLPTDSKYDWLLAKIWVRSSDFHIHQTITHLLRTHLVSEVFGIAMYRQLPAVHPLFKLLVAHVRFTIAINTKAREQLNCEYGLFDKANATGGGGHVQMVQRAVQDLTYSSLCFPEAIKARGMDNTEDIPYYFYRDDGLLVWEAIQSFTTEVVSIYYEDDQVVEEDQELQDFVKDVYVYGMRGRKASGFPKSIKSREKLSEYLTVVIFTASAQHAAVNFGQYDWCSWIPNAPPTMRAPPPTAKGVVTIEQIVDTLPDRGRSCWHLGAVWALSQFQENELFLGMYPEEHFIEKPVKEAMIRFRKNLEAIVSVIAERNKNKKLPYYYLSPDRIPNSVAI
Method: 5-Lipoxygenase enzyme was prepared as a 10,000 g supernatant from RBL-1 cells by the method of Jakschik [Jakschik, B. A., F. F. Sun, L. M. Lee, and M. M. Steinhoff, 1980, Biochem. Biophys. Res. Comm. 95, 103]. The 10,000 g supernatant was diluted with homogenization buffer to the equivalent of 1.5-2.5×10^7 cells. ml^-1 and made 2 mM with respect to CaCl2. Aliquots of 0.5 ml were then dispensed into tubes, and incubated at 29° C. with 5 μl ethanol or compound in ethanol at the desired concentration for 2 min. Then [1-^14 C] arachidonic acid was added in buffer to give a final concentration of 6.3 μm and 0.2 μCi per incubation, and the reaction continued at 29° C. for 2 min. The reaction was terminated by adding 1 ml of acetone and cooling on ice, 0.5 ml of ice-cold saline and 10 μl of 2N formic acid were added, and the mixture was extracted with 2×2 ml of chloroform. The extract was stored under N2 at -20° C. until analysis by chromatography. Activity was measured as the percentage of total radioactivity found in 5-HETE and 5,12-diHETE, and inhibition calculated as the decrease in formation of the sum of these two species in compound-treated incubates relative to control incubates.
(P values as assessed by the students `t` test).

[1] = system: adjuvant arthritis in the rat; assay: Adjuvant arthritis test in the rat; assay type: in vivo; conditions: read-out: ACTIVE DOSE
Description: The test is as described by Newbould, Brit. J. Pharmacol., 1963, 21, 127-136. Compounds were active at the doses shown below.

inhibition of 5-lipoxygenase (formation of 5-HETE and 5,12-diHETE) (5-Lipoxygenase enzyme; concentration of 5 μm) | inhibition of 5-lipoxygenase (formation of 5-HETE and 5,12-diHETE) (5-Lipoxygenase enzyme; concentration of 50 μm) | Compound | minimal effective dose ([1]; po) | minimal effective dose ([1]; ip)
15% | 50% | CN(C)C1=NC(c2ccccc2Cl)c2ccccc2C1.Cl (stereo not shown) [Example 1, 1-(2-Chlorophenyl)-3-dimethylamino-1,4-dihydroisoquinoline hydrochloride] | 25 mg/kg | –
37% | 92% | Br.CN(C)C1=NC(c2ccc(Cl)cc2)c2cc(O)c(O)cc2C1 (stereo not shown) [Example 30, 1-(4-Chlorophenyl)-6,7-dihydroxy-3-dimethylamino-1,4-dihydroisoquinoline hydrobromide] | – | 12.5 mg/kg
– | – | Br.CN(C)C1=NC(c2ccc(Cl)cc2)c2c(O)cccc2C1.O (stereo not shown) [Example 31, 1-(4-Chlorophenyl)-3-dimethylamino-8-hydroxy-1,4-dihydroisoquinoline hydrobromide hydrate] | – | 20 mg/kg
– | – | Br.CN(C)C1=NC(c2ccc(Cl)cc2)c2ccc(O)cc2C1 (stereo not shown) [Example 32, 1-(4-Chlorophenyl)-3-dimethylamino-6-hydroxy-1,4-dihydroisoquinoline hydrobromide] | – | 25 mg/kg
– | – | CN(C)C1=NC(c2ccc(Cl)cc2)c2ccccc2C1.Cl.O (stereo not shown) [Example 2, 1-(4-Chlorophenyl)-3-dimethylamino-1,4-dihydroisoquinoline hydrochloride hydrate] | 12.5 mg/kg | –
– | – | CN(C)C1=NC(c2ccccc2F)c2ccccc2C1 (stereo not shown) [Example 10, 1-(2-Fluorophenyl)-1,4-dihydro-3-dimethylaminoisoquinoline hydrochloride] | 25 mg/kg | –
